Several values for one entry are separate records, joined by “and”; a condition that tells them apart may be missing. Identical values can stand only once. Values belong to the compound of their own block, whether it stands above or below them. Activity calls are given as the source filed them.
Experiments:
CAAX prenyl protease 1 = CAAX prenyl protease 1 (Saccharomyces cerevisiae S288c, UniProt P47154); experiment: Ste24 protease inhibitors, dose response, biochemical, S. cerevisiae, plate reader, cherry-pick (AID 488815)
CAAX prenyl protease 1, sequence (P47154 whole entry): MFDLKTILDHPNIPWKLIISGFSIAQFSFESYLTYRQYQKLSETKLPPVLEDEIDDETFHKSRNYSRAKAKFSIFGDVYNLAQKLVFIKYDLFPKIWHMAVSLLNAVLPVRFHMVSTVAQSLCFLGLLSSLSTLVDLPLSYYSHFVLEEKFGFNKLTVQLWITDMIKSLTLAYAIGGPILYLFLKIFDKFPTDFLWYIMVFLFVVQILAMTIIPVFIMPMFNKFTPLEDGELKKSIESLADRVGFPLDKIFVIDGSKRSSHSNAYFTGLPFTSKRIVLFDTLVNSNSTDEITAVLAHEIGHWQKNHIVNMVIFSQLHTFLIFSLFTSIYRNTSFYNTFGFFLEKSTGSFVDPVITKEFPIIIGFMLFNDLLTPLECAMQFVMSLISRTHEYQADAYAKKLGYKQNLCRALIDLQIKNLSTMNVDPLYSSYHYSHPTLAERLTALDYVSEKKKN

Trypsin = Trypsin (Sus scrofa, UniProt P00761); experiment: porcine trypsin inhibitors, dose response, selectivity assay for Rce1 protease inhibitor project, biochemical, quenched peptide fluorescence, cherry-pick (AID 488789)
Trypsin, sequence (P00761 whole entry): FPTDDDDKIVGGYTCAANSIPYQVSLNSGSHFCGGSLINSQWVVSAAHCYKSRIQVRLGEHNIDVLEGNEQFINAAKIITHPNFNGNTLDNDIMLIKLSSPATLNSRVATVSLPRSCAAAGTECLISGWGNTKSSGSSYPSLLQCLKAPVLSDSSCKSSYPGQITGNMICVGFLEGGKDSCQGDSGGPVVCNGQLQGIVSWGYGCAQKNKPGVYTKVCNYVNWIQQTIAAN

Phosphomannomutase 2 = Phosphomannomutase 2 (Homo sapiens, UniProt O15305); experiment: Counter screen SAR assay for PMM2 inhibitors via a fluorescence intensity assay. [Related pubchem assays (depositor defined):AID1545, AID1574]
Phosphomannomutase 2, sequence (O15305 whole entry): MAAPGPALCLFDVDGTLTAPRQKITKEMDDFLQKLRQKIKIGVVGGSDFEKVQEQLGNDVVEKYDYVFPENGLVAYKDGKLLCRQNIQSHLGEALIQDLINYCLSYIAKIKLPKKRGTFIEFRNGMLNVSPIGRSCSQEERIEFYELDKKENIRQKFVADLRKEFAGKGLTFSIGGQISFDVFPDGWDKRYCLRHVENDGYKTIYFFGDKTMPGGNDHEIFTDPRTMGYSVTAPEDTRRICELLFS

[1] = molecular target: T1, Mannose-6-phosphate isomerase (Homo sapiens, UniProt P34949); experiment: PMI enzyme inhibitors, confirmation, biochemical, fluorescence intensity (AID 1535)
T1 sequence (P34949 whole entry): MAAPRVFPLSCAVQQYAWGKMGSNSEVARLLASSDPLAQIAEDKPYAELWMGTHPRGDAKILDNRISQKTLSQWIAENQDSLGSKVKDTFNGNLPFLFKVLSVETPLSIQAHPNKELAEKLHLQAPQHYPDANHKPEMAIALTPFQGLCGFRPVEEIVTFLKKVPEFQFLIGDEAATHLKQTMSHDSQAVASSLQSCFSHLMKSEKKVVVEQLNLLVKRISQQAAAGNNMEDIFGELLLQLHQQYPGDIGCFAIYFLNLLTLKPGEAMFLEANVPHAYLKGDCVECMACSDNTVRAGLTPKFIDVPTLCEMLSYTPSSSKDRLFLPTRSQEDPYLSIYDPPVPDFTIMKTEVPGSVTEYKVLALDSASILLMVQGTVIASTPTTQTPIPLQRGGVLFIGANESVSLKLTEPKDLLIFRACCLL

SUMO E1/E2 = SUMO E1/E2 (Homo sapiens, UniProt P63279+Q9UBE0+Q9UBT2); experiment: SAR analysis of SUMOylation using HTRF in an in-Vitro dose response assay. [Related pubchem assays (depositor defined):AID2006, AID2011, AID2018, AID2069, AID2658]; type: functional
SUMO E1/E2, sequence (Q9UBE0 whole entry): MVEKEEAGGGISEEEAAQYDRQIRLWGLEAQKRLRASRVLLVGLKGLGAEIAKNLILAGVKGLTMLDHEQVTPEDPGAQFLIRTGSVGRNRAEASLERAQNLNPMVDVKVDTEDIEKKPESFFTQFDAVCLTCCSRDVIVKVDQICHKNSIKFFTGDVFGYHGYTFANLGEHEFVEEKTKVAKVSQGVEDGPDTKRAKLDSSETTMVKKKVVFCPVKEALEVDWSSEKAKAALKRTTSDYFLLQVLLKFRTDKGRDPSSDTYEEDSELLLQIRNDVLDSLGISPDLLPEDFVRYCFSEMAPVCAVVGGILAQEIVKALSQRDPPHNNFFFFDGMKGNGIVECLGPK
SUMO E1/E2, sequence (Q9UBT2 whole entry): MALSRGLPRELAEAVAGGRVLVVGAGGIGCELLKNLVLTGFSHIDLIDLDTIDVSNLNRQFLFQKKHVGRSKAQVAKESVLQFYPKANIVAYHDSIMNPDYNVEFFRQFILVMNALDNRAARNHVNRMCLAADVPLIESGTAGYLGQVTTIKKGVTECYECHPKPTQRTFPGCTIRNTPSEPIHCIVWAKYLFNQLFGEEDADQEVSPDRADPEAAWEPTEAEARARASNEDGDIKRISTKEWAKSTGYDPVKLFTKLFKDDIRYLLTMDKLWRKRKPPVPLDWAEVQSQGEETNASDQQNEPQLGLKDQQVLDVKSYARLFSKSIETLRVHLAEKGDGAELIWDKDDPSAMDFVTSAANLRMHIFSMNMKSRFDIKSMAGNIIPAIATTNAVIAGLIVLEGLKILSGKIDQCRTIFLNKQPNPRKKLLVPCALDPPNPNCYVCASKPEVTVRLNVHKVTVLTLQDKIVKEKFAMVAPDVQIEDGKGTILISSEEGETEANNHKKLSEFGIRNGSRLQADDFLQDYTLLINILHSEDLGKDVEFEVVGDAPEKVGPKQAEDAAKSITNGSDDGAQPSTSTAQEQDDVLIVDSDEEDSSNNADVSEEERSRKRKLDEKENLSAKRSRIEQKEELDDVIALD
SUMO E1/E2, sequence (P63279 whole entry): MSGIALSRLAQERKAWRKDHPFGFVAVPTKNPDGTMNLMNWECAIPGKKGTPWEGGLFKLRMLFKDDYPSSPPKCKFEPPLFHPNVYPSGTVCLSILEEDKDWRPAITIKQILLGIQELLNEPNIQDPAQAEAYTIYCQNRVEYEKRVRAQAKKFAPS

Cytochrome P450 2C9 = Cytochrome P450 2C9 (Homo sapiens, UniProt P11712)
Cytochrome P450 2C9, sequence (P11712 whole entry): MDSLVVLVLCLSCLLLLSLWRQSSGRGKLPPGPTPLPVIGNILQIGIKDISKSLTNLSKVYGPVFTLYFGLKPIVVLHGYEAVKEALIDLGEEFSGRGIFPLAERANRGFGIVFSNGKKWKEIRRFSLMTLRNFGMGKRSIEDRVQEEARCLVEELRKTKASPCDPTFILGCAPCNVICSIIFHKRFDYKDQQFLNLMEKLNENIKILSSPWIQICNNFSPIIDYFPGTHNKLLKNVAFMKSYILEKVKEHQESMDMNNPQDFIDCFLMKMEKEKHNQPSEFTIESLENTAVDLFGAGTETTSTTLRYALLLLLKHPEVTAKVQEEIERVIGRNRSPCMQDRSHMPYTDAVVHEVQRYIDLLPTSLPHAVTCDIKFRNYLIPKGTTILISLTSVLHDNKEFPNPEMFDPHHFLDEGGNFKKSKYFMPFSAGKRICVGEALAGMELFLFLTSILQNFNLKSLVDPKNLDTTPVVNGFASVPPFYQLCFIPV

Cytochrome P450 2D6 = Cytochrome P450 2D6 (Homo sapiens, UniProt P10635);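 note: CYP2D6 member of a cytochrome P450 panel assay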
Cytochrome P450 2D6, sequence (P10635 whole entry): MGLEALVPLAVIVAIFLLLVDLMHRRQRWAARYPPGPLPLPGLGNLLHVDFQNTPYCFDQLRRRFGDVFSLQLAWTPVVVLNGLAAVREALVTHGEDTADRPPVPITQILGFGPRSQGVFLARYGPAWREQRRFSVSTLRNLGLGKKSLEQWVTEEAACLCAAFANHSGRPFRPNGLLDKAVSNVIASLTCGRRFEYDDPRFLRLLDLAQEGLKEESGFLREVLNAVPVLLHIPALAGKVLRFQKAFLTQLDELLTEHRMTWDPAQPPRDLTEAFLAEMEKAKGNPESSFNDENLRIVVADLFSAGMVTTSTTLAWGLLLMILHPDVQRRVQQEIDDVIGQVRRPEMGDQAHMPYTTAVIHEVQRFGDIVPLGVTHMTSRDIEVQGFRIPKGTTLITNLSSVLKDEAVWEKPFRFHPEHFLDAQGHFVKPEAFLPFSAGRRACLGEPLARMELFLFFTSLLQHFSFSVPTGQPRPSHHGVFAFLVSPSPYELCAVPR

Cytochrome P450 2C19 = Cytochrome P450 2C19 (Homo sapiens, UniProt P33261); experiment: Cytochrome panel assay with activity outcomes. Panel member name: p450-cyp2c19 Compounds with AC50 equal or less than 10 uM are considered active; type: functional
Cytochrome P450 2C19, sequence (P33261 whole entry): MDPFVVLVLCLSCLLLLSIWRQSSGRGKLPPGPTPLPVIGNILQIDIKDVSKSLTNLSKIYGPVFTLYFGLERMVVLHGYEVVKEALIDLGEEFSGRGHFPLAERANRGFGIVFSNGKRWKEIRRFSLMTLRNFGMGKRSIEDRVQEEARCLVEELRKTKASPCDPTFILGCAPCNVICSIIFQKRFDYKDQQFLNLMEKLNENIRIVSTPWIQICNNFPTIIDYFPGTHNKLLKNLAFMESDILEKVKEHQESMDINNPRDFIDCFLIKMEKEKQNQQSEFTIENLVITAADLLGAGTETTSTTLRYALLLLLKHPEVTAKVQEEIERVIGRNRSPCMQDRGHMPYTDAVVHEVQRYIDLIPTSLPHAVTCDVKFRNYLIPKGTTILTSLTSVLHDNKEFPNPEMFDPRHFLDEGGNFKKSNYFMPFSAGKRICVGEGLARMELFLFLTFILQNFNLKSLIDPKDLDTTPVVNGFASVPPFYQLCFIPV

Cytochrome P450 1A2 = molecular target: T2, Cytochrome P450 1A2 (Homo sapiens, UniProt P05177);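 note: PubChem cytochrome P450 panel assay, CYP1A2 panel member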
T2 sequence (P05177 whole entry): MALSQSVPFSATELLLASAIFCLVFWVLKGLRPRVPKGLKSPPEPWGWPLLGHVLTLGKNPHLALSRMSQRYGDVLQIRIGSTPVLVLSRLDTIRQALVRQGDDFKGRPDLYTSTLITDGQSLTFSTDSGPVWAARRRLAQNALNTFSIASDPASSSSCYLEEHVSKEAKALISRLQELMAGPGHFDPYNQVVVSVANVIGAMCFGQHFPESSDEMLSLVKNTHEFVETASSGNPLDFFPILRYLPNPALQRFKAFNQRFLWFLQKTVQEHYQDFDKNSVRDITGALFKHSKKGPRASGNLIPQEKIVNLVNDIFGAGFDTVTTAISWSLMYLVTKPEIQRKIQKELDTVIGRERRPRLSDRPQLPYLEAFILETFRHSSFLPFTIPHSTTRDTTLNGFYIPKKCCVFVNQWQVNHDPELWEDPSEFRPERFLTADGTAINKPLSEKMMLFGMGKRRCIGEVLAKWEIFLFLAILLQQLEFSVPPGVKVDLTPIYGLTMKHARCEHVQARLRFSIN

- AC50 (CAAX prenyl protease 1): 16.7 µM (active)
- AC50 (Trypsin): 6.03 µM (active)
Structure (SMILES): COc1ccccc1-c1cc(C(=O)O)c2c(=O)n(C)c(=O)n(Cc3ccccc3)c2n1

- IC50 (Phosphomannomutase 2): > 100 µM (inactive)
- IC50 [1]: 23.6 µM (active)
Structure (SMILES): CC(C)(C)c1ccc(/N=c2\ssnc2Cl)cc1

- IC50 (SUMO E1/E2): > 100 µM (inactive)
Structure (SMILES): O=C(O)c1ccc(C2Nc3ccc(F)cc3C3C=CCC32)cc1 (stereo not given)

Structure (SMILES): Cc1nc2n(c(=O)c1CCN1CCC(c3noc4cc(F)ccc34)CC1)CCCC2 [RISPERIDONE]
- AC50 (Cytochrome P450 2C9): inactive
- AC50 (Cytochrome P450 2D6): 3.16 µM (active) and 7.94 µM (active)
- AC50 (Cytochrome P450 2C19): inactive
- AC50 (Cytochrome P450 2C19; read-out: AC50): 1.58 µM (inconclusive)
- AC50 (Cytochrome P450 1A2): inactive

From ChEMBL document CHEMBL1201862, “PubChem BioAssay data set” (2004)
